Read-outs that look alike come from different tables or passages of the source.
Legend:
UGT8 = target: T1, UGT8 (Mus musculus, UniProt Q64676); settings: cited from earlier work
T1 construct: host or cells: mouse (in vivo, endogenous enzyme)
T1 sequence (Q64676 21-541): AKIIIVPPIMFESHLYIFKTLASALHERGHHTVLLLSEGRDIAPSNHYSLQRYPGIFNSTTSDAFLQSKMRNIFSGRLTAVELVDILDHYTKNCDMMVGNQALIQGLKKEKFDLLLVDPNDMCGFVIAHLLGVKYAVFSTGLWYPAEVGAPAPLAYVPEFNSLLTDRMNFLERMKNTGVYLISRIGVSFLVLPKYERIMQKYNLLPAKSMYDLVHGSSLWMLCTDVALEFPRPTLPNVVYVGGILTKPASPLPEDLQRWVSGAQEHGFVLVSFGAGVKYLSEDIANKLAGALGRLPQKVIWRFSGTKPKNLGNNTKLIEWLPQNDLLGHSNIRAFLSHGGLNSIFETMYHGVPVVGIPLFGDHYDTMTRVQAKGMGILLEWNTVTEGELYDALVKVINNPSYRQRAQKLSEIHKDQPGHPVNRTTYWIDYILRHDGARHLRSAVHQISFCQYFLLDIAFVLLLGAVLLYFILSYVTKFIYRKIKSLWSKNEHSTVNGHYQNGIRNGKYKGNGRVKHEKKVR

[1] = test system: mouse IPMN cell line LGKC 4861; test: Subcutaneous LGKC 4861 implant in athymic nude mice, tumor volume; assay type: in vivo; settings: 3 mg/kg orally every other day from day 8 for 2 weeks, vs vehicle (saline)
[2] = In vitro toxicity assay (MTS assay), mouse IPMN cell line LGKC 4861; assay type: cell-based
Description: (§1) Experiments were performed in technical triplicates. Statistical significance was determined by 2-sided Student T-test. […] UGT8 inhibitor UGT8-IN-1 or vehicle control (saline) was orally administrated every other day (3 mg/kg) from day-8 post cancer cell implantation for 2 weeks. Tumor volume was measured every 3 days. Statistical significance was determined by 2-way repeated measures ANOVA and treatment factor 2-sided p-value reported.
(§2) In vitro toxicity assays (MTS assays) were performed using three independent mouse IPMN cell lines (LGKC 4301, LGKC 4838, and LGKC 4861). Briefly, each cell line was treated with either vehicle control or the UGT8 inhibitors UGT8-IN-1 or zoledronic acid. Experiments were performed in technical triplicates. Statistical significance was determined by 2-sided Student T-test.

LGKC 4301 cells = test: In vitro toxicity assay (MTS assay), mouse IPMN cell line LGKC 4301; assay type: cell-based; settings: vs vehicle control
Description: as §1, §2

LGKC 4838 cells = test: In vitro toxicity assay (MTS assay), mouse IPMN cell line LGKC 4838; assay type: cell-based; settings: vs vehicle control
Description: as §1, §2

| Compound | inhibition of incorporation of 13C-Gal into GalCer and sulfatide (UGT8; 3 mg/kg) [%] | effective dose (ED)50 (UGT8; incorporation of 13C-Gal into GalCer and sulfatide) [mg/kg] | tumor volume [1] | cytotoxicity [2] [%] | effect on cell viability (comparison of the two UGT8 inhibitors) (LGKC 4301 cells) | reduction in cell viability (comparison of the two UGT8 inhibitors) (LGKC 4838 cells) | cytotoxicity ([2]; LGKC 4861 mouse IPMN cells, LGKC 4861 cells, MTS assay, vs vehicle control, read-out: reduction in cell viability) [%] |
| --- | --- | --- | --- | --- | --- | --- | --- |
| CNC(=O)c1csc2c(C(F)(F)F)cc(N3CCC(OC(=O)NC(C)COC(F)(F)F)CC3)nc12 (stereo in doubt) [UGT8-IN-1, [1-[3-(methylcarbamoyl)-7-(trifluoromethyl)thieno[3,2-b]pyridin-5-yl]piperidin-4-yl]N-[(2S)-1-(trifluoromethoxy)propan-2-yl]carbamate] | > 90 | 1 | lower tumor volume compared to vehicle | ~80 | slightly more effective |  |  |
| O=P(O)(O)C(O)(Cn1ccnc1)P(=O)(O)O [zoledronic acid, Zoledronic acid] |  |  |  |  | performed similarly | greater reduction in cell viability than UGT8-IN-1 | ~55 |
